Experimental findings from patent US12685312B2, “Sulfonamide apyrase inhibitors” (Texas Crop Science, Inc., priority 2022, dated 2026) are described below.

This assay relates to apyrase. The assay can be described thus: Screen for apyrase inhibitors (Method 1, in vitro phosphate-release absorbance assay). The class given is biochemical. As to conditions: inhibitor conc at 1 mM stock, 1 hr room temperature, absorbance 630 nm; rounded average of two assay results. The procedure, abridged: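 Phosphate-release colorimetric assay (Windsor method) in 60 mM Hepes, 3 mM MgCl2, 3 mM CaCl2, 3 mM ATP, pH 6.5, with compound or DMSO control added. Released phosphate developed with ammonium molybdate and ascorbic acid/TCA, then stopped with citrate/acetic acid.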
Consider `COc1ccc(N(C)S(=O)(=O)c2cccc(C(=O)Nc3ccc(OC)c(Cl)c3)c2)cc1` [I-546, N-(3-chloro-4-methoxyphenyl)-3-(N-(4-methoxyphenyl)-N-methylsulfamoyl)benzamide], for which the “% Inhibition of Apyrase” value is reported as 53%.
Consider `COc1ccccc1C(=O)Nc1ccc(S(=O)(=O)Nc2ccc(Cl)cc2)cc1` [I-978, N-(4-(N-(4-chlorophenyl)sulfamoyl)phenyl)-2-methoxybenzamide], for which the “% Inhibition of Apyrase” value was 59%.
In the case of `COc1ccc(NC(=O)c2cccc(S(=O)(=O)N3CC(C)CC(C)C3)c2)c(S(=O)(=O)Nc2ccccc2Cl)c1` (stereo not shown) [I-822, N-(2-(N-(2-chlorophenyl)sulfamoyl)-4-methoxyphenyl)-3-((3,5-dimethylpiperidin-1-yl)sulfonyl)benzamide] it was 54%; in that of `Cc1ccc(NC(=O)c2ccc(NS(=O)(=O)c3ccc(F)cc3)cc2)cc1C` [I-918, N-(3,4-dimethylphenyl)-4-((4-fluorophenyl)sulfonamido)benzamide], 58%; in that of `CC1Cc2ccccc2N1C(=O)c1ccc(S(=O)(=O)Nc2ccccc2)cc1` (stereo not shown) [I-381, 4-(2-methylindoline-1-carbonyl)-N-phenylbenzenesulfonamide], 72%.
`COc1ccc(NC(=O)c2cccc(S(=O)(=O)Nc3ccc(Br)cc3)c2)cn1` [I-280, 3-(N-(4-bromophenyl)sulfamoyl)-N-(6-methoxypyridin-3-yl)benzamide]: the “% Inhibition of Apyrase” value was 40%.
`COc1cccc(S(=O)(=O)Nc2ccc(C(=O)Nc3ccc4c(c3)OCCO4)cc2)c1` [I-903, N-(2,3-dihydrobenzo[b][1,4]dioxin-6-yl)-4-((3-methoxyphenyl)sulfonamido)benzamide]: the “% Inhibition of Apyrase” value is 62%.
As to `Nc1c(Cl)cc(NC(=O)c2cccc(S(=O)(=O)N3CCc4ccccc43)c2)cc1Cl` [I-439, N-(4-amino-3,5-dichlorophenyl)-3-(indolin-1-ylsulfonyl)benzamide], the “% Inhibition of Apyrase” value was found to be 63%.
In the case of `CCOc1ccc(NC(=O)c2cccc(S(=O)(=O)Nc3ccc(OCC)cc3)c2)cc1` [I-541, N-(4-ethoxyphenyl)-3-(N-(4-ethoxyphenyl)sulfamoyl)benzamide], the “% Inhibition of Apyrase” value is recorded as 54%.
As to `Cc1cccc(NC(=O)c2ccc(NS(=O)(=O)c3ccc(F)c(Cl)c3)cc2)c1` [I-905, 4-((3-chloro-4-fluorophenyl)sulfonamido)-N-(m-tolyl)benzamide], the “% Inhibition of Apyrase” value was found to be 61%.
Turning to `O=C(Nc1cccc(S(=O)(=O)Nc2ccc(SC(F)F)cc2)c1)c1ccsc1` [I-728, N-(3-(N-(4-((difluoromethyl)thio)phenyl)sulfamoyl)phenyl) thiophene-3-carboxamide], the “% Inhibition of Apyrase” value is reported as 56%.
For the compound `Cc1ccccc1NC(=O)c1cccc(S(=O)(=O)N2c3ccccc3CC2C)c1` (stereo not shown) [I-466, 3-((2-methylindolin-1-yl)sulfonyl)-N-(o-tolyl)benzamide], the “% Inhibition of Apyrase” value was determined as 59%.
In the case of `Cc1ccc(NS(=O)(=O)c2cccc(C(=O)Nc3c(C)cc(C)cc3C)c2)c(C)c1` [I-508, 3-(N-(2,4-dimethylphenyl)sulfamoyl)-N-mesitylbenzamide] it was 57%; in that of `O=C(Nc1cccnc1)c1cccc(S(=O)(=O)Nc2cccc(C(F)(F)F)c2)c1` [I-30, N-(pyridin-3-yl)-3-(N-(3-(trifluoromethyl)phenyl)sulfamoyl)benzamide], 21%; in that of `O=C(Nc1cnccc1O)c1cccc(NS(=O)(=O)c2ccc(Cl)c(Cl)c2)c1` [I-668, 3-((3,4-dichlorophenyl)sulfonamido)-N-(4-hydroxypyridin-3-yl)benzamide], 10%.
On to `O=C(Nc1nc2ccccc2[nH]1)c1cccc(NS(=O)(=O)c2ccc3c(c2)OCCO3)c1` [I-656, N-(1H-benzo[d]imidazol-2-yl)-3-((2,3-dihydrobenzo[b][1,4]dioxine)-6-sulfonamido)benzamide], for which the “% Inhibition of Apyrase” value is listed as 34%.
The value for `O=C(Nc1ccc(Br)cc1)c1cccc(S(=O)(=O)Nc2ccc(Br)cc2)c1` [I-20, N-(4-bromophenyl)-3-(N-(4-bromophenyl)sulfamoyl)benzamide] was 45%.
In the case of `O=C(Nc1ccc(OC(F)F)c(Cl)c1)c1ccccc1S(=O)(=O)N1CCCCC1` [I-354, N-(3-chloro-4-(difluoromethoxy)phenyl)-2-(piperidin-1-ylsulfonyl)benzamide] it was 43%.
The value for `O=C(Nc1ccc(S(=O)(=O)Nc2ccccc2Cl)cc1)c1ccc(C(F)(F)F)cc1` [I-971, N-(4-(N-(2-chlorophenyl)sulfamoyl)phenyl)-4-(trifluoromethyl)benzamide] was 67%; that for `O=C(Nc1ccccc1N1CCCC1)c1cccc(S(=O)(=O)N2CCc3ccccc32)c1` [I-492, 3-(indolin-1-ylsulfonyl)-N-(2-(pyrrolidin-1-yl)phenyl)benzamide] was 58%.
On to `CC1Cc2ccccc2N1S(=O)(=O)c1cccc(C(=O)Nc2cccc(Oc3ccccc3)c2)c1` (stereo not shown) [I-487, 3-((2-methylindolin-1-yl)sulfonyl)-N-(3-phenoxyphenyl)benzamide], for which the “% Inhibition of Apyrase” value was determined as 58%.
Consider `COc1ccccc1NS(=O)(=O)c1cccc(C(=O)Nc2c(C)nc(O)nc2O)c1` [I-461, N-(2,4-dihydroxy-6-methylpyrimidin-5-yl)-3-(N-(2-methoxyphenyl)sulfamoyl)benzamide], for which the “% Inhibition of Apyrase” value came out at 59%.
In the case of `O=C(c1cccc(S(=O)(=O)Nc2ccc3c(c2)OCO3)c1)N1CCc2ccccc21` [I-188, N-(benzo[d][1,3]dioxol-5-yl)-3-(indoline-1-carbonyl)benzenesulfonamide], the “% Inhibition of Apyrase” value is listed as 73%.
Take `Cc1ccc(F)c(NC(=O)c2ccc(NS(=O)(=O)c3ccccc3)cc2)c1` [I-955, N-(2-fluoro-5-methylphenyl)-4-(phenylsulfonamido)benzamide]: the “% Inhibition of Apyrase” value stood at 23%.
`CN(c1ccccc1)S(=O)(=O)c1ccccc1C(=O)Nc1ccc(C(N)=O)cc1` [I-816, N-(4-carbamoylphenyl)-2-(N-methyl-N-phenylsulfamoyl)benzamide]: the “% Inhibition of Apyrase” value amounted to 29%.
In the case of `O=C(Nc1ccc(N2CCOCC2)cc1)c1ccc(S(=O)(=O)N2CCCc3ccccc32)cc1` [I-895, 4-((3,4-dihydroquinolin-1(2H)-yl)sulfonyl)-N-(4-morpholinophenyl)benzamide], the “% Inhibition of Apyrase” value is recorded as 10%.
The value for `Cc1ccc(NC(=O)c2cccc(S(=O)(=O)Nc3ccccc3F)c2)c(F)c1` [I-613, N-(2-fluoro-4-methylphenyl)-3-(N-(2-fluorophenyl)sulfamoyl)benzamide] was 3%; that for `Cc1cc(C(=O)Nc2cccc(S(=O)(=O)Nc3ccccc3Cl)c2)sc1C` [I-713, N-(3-(N-(2-chlorophenyl)sulfamoyl)phenyl)-4,5-dimethylthiophene-2-carboxamide] was 58%; that for `O=C(Nc1nc2c(s1)CCC2)c1cccc(NS(=O)(=O)c2ccc3c(c2)OCCO3)c1` [I-637, N-(5,6-dihydro-4H-cyclopenta[d]thiazol-2-yl)-3-((2,3-dihydrobenzo[b][1,4]dioxine)-6-sulfonamido)benzamide] was 57%.
In the case of `O=C(Nc1cccc(S(=O)(=O)Nc2cccc(C(F)(F)F)c2)c1)c1ccsc1` [I-718, N-(3-(N-(3-(trifluoromethyl)phenyl)sulfamoyl)phenyl) thiophene-3-carboxamide] it was 58%.
Regarding `COc1ccc(S(=O)(=O)N2CCc3ccccc32)cc1C(=O)Nc1ccc(C(F)(F)F)cc1` [I-505, 5-(indolin-1-ylsulfonyl)-2-methoxy-N-(4-(trifluoromethyl)phenyl)benzamide], the “% Inhibition of Apyrase” value was 57%.
For `COc1ccc2c(c1)CCCN2C(=O)c1cccc(S(=O)(=O)Nc2ccccc2F)c1` [I-561, N-(2-fluorophenyl)-3-(6-methoxy-1,2,3,4-tetrahydroquinoline-1-carbonyl)benzenesulfonamide], the “% Inhibition of Apyrase” value was 51%.
Consider `O=C(NC12CC3CC(CC(C3)C1)C2)c1cccc(S(=O)(=O)Nc2ccc(Br)cc2)c1` [I-240, N-(adamantan-1-yl)-3-(N-(4-bromophenyl)sulfamoyl)benzamide], for which the “% Inhibition of Apyrase” value came out at 71%.
With `CC(=O)c1ccccc1NC(=O)c1cccc(S(=O)(=O)N2c3ccccc3CC2C)c1` (stereo not shown) [I-610, N-(2-acetylphenyl)-3-((2-methylindolin-1-yl)sulfonyl)benzamide], the “% Inhibition of Apyrase” value turned out to be 4%.
Consider `COc1ccccc1NS(=O)(=O)c1ccc(NC(=O)c2cccc([N+](=O)[O-])c2)cc1` [I-993, N-(4-(N-(2-methoxyphenyl)sulfamoyl)phenyl)-3-nitrobenzamide], for which the “% Inhibition of Apyrase” value is recorded as 48%.
Regarding `CN(c1ccccc1)S(=O)(=O)c1cccc(NC(=O)c2nn(C)c(=O)c3ccccc23)c1` [I-763, 3-methyl-N-(3-(N-methyl-N-phenylsulfamoyl)phenyl)-4-oxo-3,4-dihydrophthalazine-1-carboxamide], the “% Inhibition of Apyrase” value is 15%.
With `O=C(NC1CCCc2ccccc21)c1cccc(S(=O)(=O)Nc2ccc(Br)cc2)c1` (stereo not shown) [I-244, 3-(N-(4-bromophenyl)sulfamoyl)-N-(1,2,3,4-tetrahydronaphthalen-1-yl)benzamide], the “% Inhibition of Apyrase” value was determined as 68%.
For the compound `O=C(Nc1cccc(NS(=O)(=O)c2c(Br)cc3[nH]c(=O)oc3c2Cl)c1)c1ccc(Br)cc1` [I-337, 4-bromo-N-(3-((5-bromo-7-chloro-2-oxo-2,3-dihydrobenzo[d]oxazole)-6-sulfonamido)phenyl)benzamide], the “% Inhibition of Apyrase” value is 73%.
With `COc1ccccc1NS(=O)(=O)c1ccc(C(=O)Nc2cccc(C(F)(F)F)c2)cc1` [I-410, 4-(N-(2-methoxyphenyl)sulfamoyl)-N-(3-(trifluoromethyl)phenyl)benzamide], the “% Inhibition of Apyrase” value is recorded as 29%.
For `COc1ccc(NS(=O)(=O)c2cccc(C(=O)Nc3cnc4[nH]nc(C)c4c3)c2)cc1` [I-606, 3-(N-(4-methoxyphenyl)sulfamoyl)-N-(3-methyl-1H-pyrazolo[3,4-b]pyridin-5-yl)benzamide], the “% Inhibition of Apyrase” value is recorded as 16%.
